pIC50: −log10 of the molar value. Blank lines part the entries; values can stand above or below the compound they belong to.
Columns and labels:
A549 cells = assay: in vitro antiproliferation assay, A549 (lung); type: cell-based
Summary of the method: (§1)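 IC50 values came from standard antiproliferation testing in cultured tumour cells; the A549 and H1299 lines are of lung origin.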

H1299 cells = assay: in vitro antiproliferation assay, H1299 (lung); type: cell-based
Summary of the method: as §1

[1] = A549 (lung) cells, antiproliferation
[2] = H1299 (lung) cells, antiproliferation
[3] = A549 (lung) cells, in vitro antiproliferation
[4] = H1299 (lung) cells, in vitro antiproliferation
[5] = Homo sapiens, IC50 class against A549 (lung) tumor cells
[6] = Homo sapiens, NCI-H1299, IC50 class against H1299 (lung) tumor cells
[7] = Table 5, in vitro antiproliferation, A549 (lung) cells
[8] = Table 5, in vitro antiproliferation, H1299 (lung) cells
[9] = IC50 class against A549 (lung) tumor cells
[10] = IC50 class against H1299 (lung) tumor cells
[11] = in vitro antiproliferation, A549 (lung) cells, Table 4, compounds with no designated stereochemistry tested as racemate
[12] = in vitro antiproliferation, H1299 (lung) cells, Table 4, compounds with no designated stereochemistry tested as racemate

pIC50 (A549 cells; A549 (lung) cells): ≥ 4.70 | pIC50 (H1299 cells; H1299 (lung) cells): ≥ 4.70
Structure (SMILES): CCCCn1ncc2cc(Nc3ncc(F)c(Nc4ccc(Cl)c(Cl)c4)n3)ccc21 [compound 1083]

pIC50 (A549 cells; [1]): ≥ 4.70 | pIC50 (H1299 cells; [2]): ≥ 4.70
Structure (SMILES): Cc1cc(Nc2ncc(F)c(Nc3ccc(N4CCN(C)CC4)c(C)c3)n2)ccc1N1CCN(C)CC1 [compound 894]

pIC50 (A549 cells; [3]): ≥ 4.70 | pIC50 (H1299 cells; [4]): ≥ 4.70
Structure (SMILES): COc1cc(Nc2ncc(F)c(Nc3cc(C)cc(C)c3)n2)cc(OC)c1 [compound 814]

pIC50 (A549 cells; [1]): ≥ 4.70 | pIC50 (H1299 cells; [2]): ≥ 4.70
Structure (SMILES): CNC(=O)COc1c(C)cc(Nc2ncc(F)c(N(C)c3ccc(OC)c(Cl)c3)n2)cc1C [compound 905]

pIC50 (A549 cells; [5]): ≥ 4.70 | pIC50 (H1299 cells; [6]): ≥ 4.70
Structure (SMILES): CN1CCN(c2ccc(Nc3ncc(F)c(Nc4cc(C5CC5)[nH]n4)n3)cc2)CC1 [compound 206]

pIC50 (A549 cells; [7]): < 4.70 | pIC50 (H1299 cells; [8]): < 4.70
Structure (SMILES): Fc1cc(F)cc(Nc2ncc(F)c(Nc3ccc4c(c3)OCCO4)n2)c1 [compound 524]

pIC50 (A549 cells; [9]): ≥ 4.70 | pIC50 (H1299 cells; [10]): ≥ 4.70
Structure (SMILES): CN1CCN(c2cccc(Nc3ncc(F)c(NC4CC(C)(C)N(C)C(C)(C)C4)n3)c2)CC1 [compound 179]

pIC50 (A549 cells; [11]): ≥ 4.70 | pIC50 (H1299 cells; [12]): ≥ 4.70
Structure (SMILES): CC1(C)Oc2ccc(Nc3nc(Nc4cc(CO)cc(CO)c4)ncc3F)cc2NC1=O [compound 320]

pIC50 (A549 cells; [9]): ≥ 4.70 | pIC50 (H1299 cells; [10]): ≥ 4.70
Structure (SMILES): Cc1cc(Nc2ncc(F)c(NC3CCCC3)n2)cnc1N1CCN(C)CC1 [compound 172]

pIC50 (A549 cells; [1]): < 4.70 | pIC50 (H1299 cells; [2]): < 4.70
Structure (SMILES): COc1cc(Nc2nc(Nc3ccc(C(N)=O)cc3)ncc2F)ccc1Cl [compound 1032]

pIC50 (A549 cells; [9]): ≥ 4.70 | pIC50 (H1299 cells; [10]): ≥ 4.70
Structure (SMILES): CN1CCN(c2ccc(Nc3ncc(F)c(NC4CC(C)(C)N(C)C(C)(C)C4)n3)cc2C(F)(F)F)CC1 [compound 182]

pIC50 (A549 cells; [11]): ≥ 4.70 | pIC50 (H1299 cells; [12]): ≥ 4.70
Structure (SMILES): COc1ccc(Nc2ncc(F)c(N(C)c3ccc4c(c3)NC(=O)C(C)(C)O4)n2)cc1Cl [compound 327]

pIC50 (A549 cells; [7]): ≥ 4.70 | pIC50 (H1299 cells; [8]): ≥ 4.70
Structure (SMILES): COc1cc(Nc2ncc(F)c(Nc3ccc4c(c3)OCO4)n2)cc(C(F)(F)F)c1 [compound 541]

pIC50 (A549 cells; [5]): ≥ 4.70 | pIC50 (H1299 cells; [6]): ≥ 4.70
Structure (SMILES): CN1CCN(c2ccc(Nc3ncc(F)c(Nc4cc(C(C)(C)C)[nH]n4)n3)cc2)CC1 [compound 204]

pIC50 (A549 cells; [7]): ≥ 4.70 | pIC50 (H1299 cells; [8]): ≥ 4.70
Structure (SMILES): CN(c1ccc2c(c1)OC(F)(F)C(F)(F)O2)c1nc(Nc2cccc(-c3ncco3)c2)ncc1F [compound 572]

pIC50 (A549 cells; [5]): ≥ 4.70 | pIC50 (H1299 cells; [6]): ≥ 4.70
Structure (SMILES): COc1cc(Nc2ncc(F)c(Nc3cccc(Nc4ncc[nH]4)c3)n2)cc(OC)c1 [compound 1053]

pIC50 (A549 cells; [1]): ≥ 4.70 | pIC50 (H1299 cells; [2]): ≥ 4.70
Structure (SMILES): NC(=O)COc1ccc(Nc2nc(Nc3cccc(O)c3)ncc2F)cc1 [compound 974]

pIC50 (A549 cells; A549 (lung) cells): < 4.70 | pIC50 (H1299 cells; H1299 (lung) cells): < 4.70
Structure (SMILES): CC(C)(CC1CC1)n1ncc2cc(Nc3ncc(F)c(Nc4ccc(Cl)c(Cl)c4)n3)ccc21 [compound 1107]

pIC50 (A549 cells; Homo sapiens, A549 (lung) cells): ≥ 4.70 | pIC50 (H1299 cells; Homo sapiens, NCI-H1299, H1299 (lung) cells): ≥ 4.70
Structure (SMILES): COc1cc(C(N)=O)c(Nc2ncc(F)c(N(C)C3CCC3)n2)cc1OC(=O)c1ccccc1 [compound 1162]

pIC50 (A549 cells; [7]): ≥ 4.70 | pIC50 (H1299 cells; [8]): ≥ 4.70
Structure (SMILES): COc1cc(Nc2ncc(F)c(Nc3ccc4c(c3)OC(F)(F)O4)n2)cc(OC)c1OC [compound 560]

pIC50 (A549 cells; [3]): < 4.70 | pIC50 (H1299 cells; [4]): ≥ 4.70
Structure (SMILES): COc1ccc(N(C)c2nc(Nc3cccc(-c4cnco4)c3)ncc2F)cc1OC [compound 867]

pIC50 (A549 cells; [9]): ≥ 4.70 | pIC50 (H1299 cells; [10]): ≥ 4.70
Structure (SMILES): Cc1cc(Nc2ncc(F)c(NC3CCCCC3)n2)cnc1N1CCN(C)CC1 [compound 173]

pIC50 (A549 cells; [3]): ≥ 4.70 | pIC50 (H1299 cells; [4]): ≥ 4.70
Structure (SMILES): COc1cc(Nc2ncc(F)c(Nc3cccc(OC(F)(F)F)c3)n2)cc(OC)c1 [compound 812]

pIC50 (A549 cells; [11]): < 4.70 | pIC50 (H1299 cells; [12]): ≥ 4.70
Structure (SMILES): O=C1COc2ccc(Nc3nc(Nc4cccc(-c5cnco5)c4)ncc3F)cc2N1 [compound 239]

pIC50 (A549 cells; [3]): ≥ 4.70 | pIC50 (H1299 cells; [4]): ≥ 4.70
Structure (SMILES): COc1cc(Nc2nc(Nc3cc(C)c(O)c(Cl)c3)ncc2F)cc(C(F)(F)F)c1 [compound 822]

pIC50 (A549 cells; [9]): ≥ 4.70 | pIC50 (H1299 cells; [10]): ≥ 4.70
Structure (SMILES): CCOC(=O)N1CCC(Nc2nc(Nc3ccc(N4CCN(C)CC4)cc3)ncc2F)CC1 [compound 185]

pIC50 (A549 cells; [3]): ≥ 4.70 | pIC50 (H1299 cells; [4]): ≥ 4.70
Structure (SMILES): CNC(=O)COc1cc(Nc2ncc(F)c(Nc3ccc(C)c(OCC(=O)NC)c3)n2)ccc1C [compound 759]

pIC50 (A549 cells; [9]): < 4.70 | pIC50 (H1299 cells; [10]): ≥ 4.70
Structure (SMILES): CN(c1ccc2c(c1)OCCO2)c1nc(N(CCO)CCO)ncc1F [compound 1042]

pIC50 (A549 cells; [7]): < 4.70 | pIC50 (H1299 cells; [8]): ≥ 4.70
Structure (SMILES): COc1cc(Nc2ncc(F)c(Nc3ccc4c(c3)OCCO4)n2)cc(C(F)(F)F)c1 [compound 531]

pIC50 (A549 cells; [1]): ≥ 4.70 | pIC50 (H1299 cells; [2]): ≥ 4.70
Structure (SMILES): CCN(CC)CCNC(=O)c1ccc(Nc2ncc(F)c(Nc3ccc(OC)c(Cl)c3)n2)cc1 [compound 1021]

pIC50 (A549 cells; [9]): ≥ 4.70 | pIC50 (H1299 cells; [10]): ≥ 4.70
Structure (SMILES): CN1CCN(c2ccc(Nc3ncc(F)c(NC4CCCC4)n3)cc2)CC1 [compound 134]

— US8809341B2, “2,4-pyrimidinediamine compounds and uses as anti-proliferative agents” (Rigel Pharmaceuticals, Inc., priority 2003, dated 2014)
